# Test results reported in PMC12048435, “Multifunctional acyltransferases involved in the synthesis of triacylglycerol, fatty acid phytyl esters and plastoquinol esters in cyanobacteria” (Planta, 2025).
# Experiments:
# slr2103 [1] = biological target: T1, slr2103 (Synechocystis sp. PCC 6803, UniProt P73931); assay: feeding of E. coli cells expressing slr2103, acyl-DPQ product by LC-MS/MS; type: cell-based; conditions: supplied as decylplastoquinone (1500 nmol in 5 ml), reduced in cells; acyl donor from E. coli; 30 C, 3 h
# T1 construct: cloned in pQE-80L, expressed in E. coli; intact cells fed with substrate
# T1 sequence (P73931 1-294): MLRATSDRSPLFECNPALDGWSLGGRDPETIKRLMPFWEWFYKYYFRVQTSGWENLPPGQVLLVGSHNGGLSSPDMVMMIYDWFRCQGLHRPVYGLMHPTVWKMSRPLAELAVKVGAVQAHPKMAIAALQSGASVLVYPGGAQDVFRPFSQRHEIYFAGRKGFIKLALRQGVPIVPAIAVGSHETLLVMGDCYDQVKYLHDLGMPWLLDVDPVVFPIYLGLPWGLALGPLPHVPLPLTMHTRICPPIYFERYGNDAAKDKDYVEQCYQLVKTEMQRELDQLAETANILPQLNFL
# slr2103 [2] = biological target: T1, slr2103; assay: feeding of E. coli cells expressing slr2103, TAG product by MS; type: cell-based; conditions: 1500 nmol substrate in 5 ml; acyl donor from E. coli; 30 C, 3 h
# A0918 = biological target: T2, A0918 (Picosynechococcus sp. PCC 7002, UniProt B1XIY0); assay: in vitro acyltransferase assay with E. coli microsomal membranes, TAG product by MS; type: biochemical; conditions: 50 uM palmitoyl-CoA, 200 uM substrate, 20 mM MgCl2, 0.1% CHAPS, pH 7.4, 37 C, 20 min
# T2 construct: gene plsC; amplified from genomic DNA, cloned in pQE-80L, expressed in E. coli; microsomal membrane fraction
# T2 sequence (B1XIY0 1-291): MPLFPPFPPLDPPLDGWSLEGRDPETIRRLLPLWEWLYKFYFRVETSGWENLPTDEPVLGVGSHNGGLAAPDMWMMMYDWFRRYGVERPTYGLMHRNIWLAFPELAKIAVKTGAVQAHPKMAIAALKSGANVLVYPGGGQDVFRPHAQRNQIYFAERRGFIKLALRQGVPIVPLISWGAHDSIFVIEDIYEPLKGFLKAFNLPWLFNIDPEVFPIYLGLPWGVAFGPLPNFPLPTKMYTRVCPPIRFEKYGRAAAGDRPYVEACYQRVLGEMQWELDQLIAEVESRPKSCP
Compound,"feeding of E. coli cells expressing slr2103, acyl-DPQ product by LC-MS/MS (slr2103 [1])","feeding of E. coli cells expressing slr2103, TAG product by MS (slr2103 [2])","in vitro acyltransferase assay with E. coli microsomal membranes, TAG product by (A0918)"
"CCCCCCCCCCc1cc(O)c(C)c(C)c1O [DPQ, decylplastoquinol]",slr2103 is capable of acylating one of the quinol hydroxyl groups of DPQ,–,–
CCCCCCCC(=O)OCC(CO)OC(=O)CCCCCCC (stereo not drawn) [dioctanoin],–,Accumulation of TAG after supplementation of E. coli cells expressing slr2103 with dioctanoin,confirming that A0918 harbors acyltransferase activity for the synthesis of TAG and FAPE
